Measurements taken from patent publication US20050003371A1, “Modified nucleotides and methods of labeling nucleic acids” (Stratagene, priority 2002, published 2005).
“Also recorded” adds a separate entry of the source.

What was measured:
[1] = target: T1, terminal deoxynucleotide transferase (TdT) (Bos taurus, UniProt P06526); test: Tailing / 3'-end labeling of a 12-mer oligonucleotide with terminal transferase (Procedure 1); format: biochemical; settings: for number of contiguous modified bases added to the 3' terminus: TdT-catalyzed end labeling
T1 construct: purchased Stratagene (La Jolla, Calif.)
Description: A 12-mer oligonucleotide (5′-[…]-3′; SEQ ID NO: 1) was 5′ labeled with ^32P ATP and T4 Polynucleotide Kinase according to established methods (Roychoudhury and Wu, 1980; Sambrook, Fritch, and Maniatis, 1989). Aliquots of the mixture containing 10 ng of kinased oligo were combined with 100 pmol of fluorescein 12-dUTP and 5 units of terminal deoxynucleotide transferase (TdT) in 100 mM potassium cacodylate, 2 mM CoCl2, pH 7.2 (final volume of 10 μL). […] The reactions were quenched by the addition of loading dye and 4 μL aliquots were loaded onto a sequencing gel (14″×17″, poured with 20% acrylamide/7M urea/1×TBE), electrophoresed for 3 hours at 55 watts/[…] and exposed to X-ray film.

Taq DNA polymerase = target: T2, Taq DNA polymerase (Thermus aquaticus, UniProt P19821); test: Polymerase primer extension assay, 12-mer primer/18-mer template (Procedure 2); format: biochemical; settings: template with maximum four dTTP/dUTP sites
T2 construct: purchased Stratagene (La Jolla, Calif.)
Description: (§1) Aliquots containing 10 ng of the kinased 12-mer described in procedure 1 were combined with 40 ng of an 18-mer oligonucleotide (5′-[…]-3′; SEQ ID NO: 2) in 8 μL of T-7 buffer (20 mM MgCl2, 50 mM NaCl, 40 mM Tris, pH 7.5) or Klenow buffer (5 mM MgCl2, 4 mM DTT, 35 mM Tris, pH 7.5). To each reaction was added 1 μL of a solution containing 100 μM each of dATP and fluorescein 12-dUTP. The reaction contents were heated to 95° C. for 2 minutes and allowed to cool to room temperature. Five units (1 μL) of the appropriate polymerase were added and the reaction mixtures were incubated at 37° C. for 10 minutes. Control reactions were run which contained no polymerase. Polymerase activity was terminated by addition of 3 μL of 1M EDTA and the extension products were separated by electrophoresis using a 20% acrylamide gel and the results visualized by autoradiography. A measurement of the degree of polymerase-catalyzed primer extension obtained in the presence of modified nucleotide analogs according to the invention can be determined by substituting the modified nucleotide (1 μL of 100 μM) for fluorescein 12-dUTP in procedure 2.

Klenow polymerase = target: T3, Klenow polymerase (Escherichia coli, UniProt P00582); test: Polymerase primer extension assay (Procedure 2); format: biochemical, E. coli; settings: Procedure 2, results not shown
T3 construct: Incorporation results using SAc-dUTP and the Klenow fragment of DNA polymerase I following Procedure 3
Description: as §1

T7 DNA polymerase = T7 DNA polymerase (Escherichia phage T7, UniProt P00581); settings: Procedure 2; for incorporation into DNA by T7 DNA polymerase in primer extension: template with maximum four dTTP/dUTP sites
Description: as §1

[2] = test system: exonuclease free Klenow polymerase; settings: Procedure 2, results not shown
Description: as §1

T1 sequence (P06526 whole entry): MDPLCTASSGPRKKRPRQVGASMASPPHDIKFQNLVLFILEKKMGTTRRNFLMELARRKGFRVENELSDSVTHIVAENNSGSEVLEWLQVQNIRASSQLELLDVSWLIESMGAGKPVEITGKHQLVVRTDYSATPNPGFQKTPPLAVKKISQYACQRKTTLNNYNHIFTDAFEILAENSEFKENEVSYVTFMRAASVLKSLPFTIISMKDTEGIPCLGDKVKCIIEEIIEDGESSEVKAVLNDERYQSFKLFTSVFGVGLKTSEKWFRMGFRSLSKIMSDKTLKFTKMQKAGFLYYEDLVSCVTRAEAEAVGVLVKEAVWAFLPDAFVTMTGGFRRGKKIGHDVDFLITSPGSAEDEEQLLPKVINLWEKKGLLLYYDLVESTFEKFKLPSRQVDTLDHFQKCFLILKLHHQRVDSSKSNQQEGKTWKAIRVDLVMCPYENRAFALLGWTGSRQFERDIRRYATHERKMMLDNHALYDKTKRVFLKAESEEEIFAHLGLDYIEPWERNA
Sequence of T7 DNA polymerase (P00581 whole entry): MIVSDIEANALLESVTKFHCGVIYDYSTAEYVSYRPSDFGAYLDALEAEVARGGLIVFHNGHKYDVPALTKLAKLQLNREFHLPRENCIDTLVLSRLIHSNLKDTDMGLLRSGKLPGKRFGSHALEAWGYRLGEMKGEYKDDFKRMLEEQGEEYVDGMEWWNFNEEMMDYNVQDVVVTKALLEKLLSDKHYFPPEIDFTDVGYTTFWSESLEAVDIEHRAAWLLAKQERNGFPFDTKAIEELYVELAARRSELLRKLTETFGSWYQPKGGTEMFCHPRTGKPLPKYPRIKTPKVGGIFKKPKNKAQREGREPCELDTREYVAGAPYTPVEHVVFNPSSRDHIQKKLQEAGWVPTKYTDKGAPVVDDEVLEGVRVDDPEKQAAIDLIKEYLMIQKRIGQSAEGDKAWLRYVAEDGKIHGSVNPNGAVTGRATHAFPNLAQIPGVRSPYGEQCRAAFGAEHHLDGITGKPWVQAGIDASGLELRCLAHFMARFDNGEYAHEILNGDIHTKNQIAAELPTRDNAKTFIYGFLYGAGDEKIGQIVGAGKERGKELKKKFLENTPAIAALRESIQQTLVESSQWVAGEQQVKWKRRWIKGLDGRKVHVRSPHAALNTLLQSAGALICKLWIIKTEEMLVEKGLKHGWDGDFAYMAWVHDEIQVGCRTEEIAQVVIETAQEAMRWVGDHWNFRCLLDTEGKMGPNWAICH
Sequence of T7 DNA polymerase (P0AA25 2-109, further chain): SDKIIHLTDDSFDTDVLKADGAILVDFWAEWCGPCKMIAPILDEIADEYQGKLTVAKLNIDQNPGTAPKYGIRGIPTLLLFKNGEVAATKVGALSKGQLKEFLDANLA
T2 sequence (P19821 whole entry): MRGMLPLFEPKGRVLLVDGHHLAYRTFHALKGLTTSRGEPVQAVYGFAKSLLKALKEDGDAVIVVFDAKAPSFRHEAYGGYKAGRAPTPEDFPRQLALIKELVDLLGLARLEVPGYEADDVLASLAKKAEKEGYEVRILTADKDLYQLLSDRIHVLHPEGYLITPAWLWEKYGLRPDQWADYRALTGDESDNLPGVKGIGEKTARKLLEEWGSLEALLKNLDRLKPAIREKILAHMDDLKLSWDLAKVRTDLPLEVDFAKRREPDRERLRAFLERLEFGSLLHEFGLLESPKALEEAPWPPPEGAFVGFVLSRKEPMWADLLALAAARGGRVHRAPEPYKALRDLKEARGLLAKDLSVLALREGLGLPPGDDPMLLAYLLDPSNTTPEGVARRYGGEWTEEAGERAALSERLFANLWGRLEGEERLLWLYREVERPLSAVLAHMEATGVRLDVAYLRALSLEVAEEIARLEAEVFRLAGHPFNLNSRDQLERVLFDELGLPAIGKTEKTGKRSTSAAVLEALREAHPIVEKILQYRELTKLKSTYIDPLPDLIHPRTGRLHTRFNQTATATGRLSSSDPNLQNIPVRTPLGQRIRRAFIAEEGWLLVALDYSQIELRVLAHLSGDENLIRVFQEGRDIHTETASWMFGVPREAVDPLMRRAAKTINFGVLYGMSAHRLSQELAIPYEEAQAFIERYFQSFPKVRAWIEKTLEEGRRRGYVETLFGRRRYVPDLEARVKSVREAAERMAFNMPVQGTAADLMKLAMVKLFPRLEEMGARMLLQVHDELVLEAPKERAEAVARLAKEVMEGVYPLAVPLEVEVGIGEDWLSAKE
T3 sequence (P00582 324-928): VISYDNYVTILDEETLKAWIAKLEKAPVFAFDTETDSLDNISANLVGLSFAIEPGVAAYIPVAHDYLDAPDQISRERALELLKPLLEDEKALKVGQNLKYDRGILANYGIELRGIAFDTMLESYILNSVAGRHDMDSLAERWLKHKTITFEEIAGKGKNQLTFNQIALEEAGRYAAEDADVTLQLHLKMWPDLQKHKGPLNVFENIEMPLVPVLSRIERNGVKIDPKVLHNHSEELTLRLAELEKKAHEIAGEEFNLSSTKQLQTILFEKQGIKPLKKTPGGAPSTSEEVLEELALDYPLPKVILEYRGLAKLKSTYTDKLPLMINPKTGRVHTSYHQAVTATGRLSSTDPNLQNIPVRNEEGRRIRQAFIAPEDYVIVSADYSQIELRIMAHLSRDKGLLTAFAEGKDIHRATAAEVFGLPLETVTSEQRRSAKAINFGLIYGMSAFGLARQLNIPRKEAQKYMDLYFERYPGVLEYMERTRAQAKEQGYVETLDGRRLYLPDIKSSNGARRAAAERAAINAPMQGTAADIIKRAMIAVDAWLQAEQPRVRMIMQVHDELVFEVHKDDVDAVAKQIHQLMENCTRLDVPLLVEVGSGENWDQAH

maleimido-methylcyclohexane-dUTP [MCC-dUTP]
number of contiguous modified bases added to the 3' terminus [1]: up to 5 bases
incorporation into DNA by Taq DNA polymerase in primer extension (Taq DNA polymerase): essentially the same degree of incorporation as PDP-dUTP
accepted as substrate by Klenow polymerase in primer extension (Klenow polymerase): accepted as a substrate
incorporation into DNA by T7 DNA polymerase in primer extension (T7 DNA polymerase): essentially the same degree of incorporation as PDP-dUTP
accepted as substrate by exonuclease free Klenow polymerase in primer extension [2]: accepted as a substrate

pyridine dithiopropanoate-dUTP [PDP-dUTP]
substrate for TdT in oligonucleotide tailing / 3'-end labeling ([1]; Procedure 1, 20% denaturing PAGE, autoradiography): substrate for TdT
number of contiguous modified bases added to the 3' terminus [1]: up to 10 bases
incorporation into DNA by Taq DNA polymerase in primer extension (Taq DNA polymerase): incorporated into DNA; also recorded: incorporated at several sites
substrate efficiency with T7 polymerase relative to Taq polymerase (T7 DNA polymerase; smaller fragments observed in T7 reaction): reduced substrate efficiency with T7 polymerase compared to Taq polymerase
incorporation into DNA by T7 DNA polymerase in primer extension (T7 DNA polymerase): incorporated into DNA
